US4067990A, “Process for the preparation of insecticidal compositions based on carbamic esters” (Airwick Industries, Inc., priority 1971, dated 1978)
Where two headings read alike, the source gives them in different places.

Key:
[1] = Dissolution capacity of diluents/solvents for Dioxacarb and Arprocarb; format: physicochemical; details: at 20° C; for Dissolution capacity for DIOXACARB / Dissolving capacity for Dioxacarb: solute Dioxacarb; for Dissolution capacity for ARPROCARB / Dissolving capacity for Arprocarb: solute Arprocarb; for Dissolving capacity for Arprocarb: footnotes
[2] = at 25° C
[3] = test system: common cockroaches; test: Test I: insecticidal efficacy of sprayed glass plates after 24 hours, one minute contact, common cockroaches; format: in vivo, Blatta orientalis; details: compared with Dioxacarb
Protocol: After a standing time of 24 hours, tests to determine insecticidal efficacy were carried out on common cockroaches, these being placed on the treated face of the glass plate for one minute, and then transferred for observation to ventilated glass jars. […] The proportions recorded are shown below.

Structure (SMILES) | Dissolution capacity for DIOXACARB [1] [weight %] | Vapour pressure [2] [Torr] | further results
CCCCCCCCCCCCCCCC [Hexadecane] | 0 | 0.003 | Vapour pressure ([2]; listed as hexadecane): < 0.005 Torr
CCCCCC [Hexane] | 0.2 | 151 | Dissolution capacity for ARPROCARB [1]: 0.3 weight %; Dissolving capacity for Arprocarb [1]: 0.3%; Dissolving capacity for Dioxacarb [1]: approximately 0.2%
CCCCCCCC(=O)O [Octanoic acid] | 1.5 | 0.002 | –
ClC=C(Cl)Cl [Trichloroethylene] | 2 | 74 | Dissolving capacity for Dioxacarb [1]: approximately 2%
CCC(C)OC(C)=O (centres unmarked) [sec. Butylacetate] | 6 | 26 | –
CNC(=O)Oc1ccccc1OC(C)C [Arprocarb, 2-isopropoxyphenyl N-methyl-carbamate] | – | – | insecticidal behaviour in words [3]: behaves exactly as Dioxacarb
CCC(C)=O [Methylethylketone] | 5 | 20 | –
CCCCC(CC)COC(=O)CCCCC(=O)OCC(CC)CCCC (centres unmarked) [Di(2-ethylhexyl)adipate)] | 2.0 | 0.007 | Dissolution capacity for ARPROCARB [1]: 2.8 weight %; Dissolving capacity for Arprocarb [1]: 2.8%; Vapour pressure ([2]; listed as Di(2-ethyl-hexyl) adipate): ~0.007 Torr; Vapour pressure ([2]; listed as di(ethyl-2-hexyl) adipate): < 0.005 Torr
CCCCCCCCCCCCC1CC(=O)OC1=O (centres unmarked) [2-Dodecylsuccinic-acid anhydride] | 2.9 | 0.007 | –
